Columns and labels:
[1] = system: CEM cells; test: DNA fragmentation by electrophoresis (apoptosis); assay type: cell-based, human; settings: for apoptosis, DNA fragmentation on gel electrophoresis: 48 hours, compound 8 0.025 μg/ml, compound 9 0.005 μg/ml, fluorine compound 5.0 μg/ml, chlorine compound 0.75 μg/ml; for Apoptosis: 0.025 μg/ml, DNA electrophoresis
Procedure: DNA fragmentation was determined by a method reported previously (reference 3). Briefly, cells were treated in 1 ml lysis buffer (0.01M Tris. HCL pH 8.0, 0.01M NaCl, 0.01M EDTA pH 8.0 and 5% sodium dodecyl sulfate) containing 1 μg/ml protease K for 1 h at 50° C. The resulting products were extracted with phenol and chloroform:isoamylalcohol (24:1, v/v), and precipitated with ethanol followed by centrifugation at 7800 g (Sorvall RC-5B Du Pont, Newtown, Conn.). The ethanol was removed and the dry pellets of nucleic acid were resuspended in 10 mM Tris-HCL/1 mM EDTA solution. When DNA content was determined spectrophotometrically all samples had A260/A280 ratio≧2. The DNA samples were then treated with RNase (Sigma, St. Louis, Mo.) at a final concentration of 0.1 μg/μl for 20 min at 37° C. before gel loading. Approximately 4 μg size DNA aliquots were loaded onto horizontal agarose gel (1.5%) prepared with 1% ethidium bromide. Electrophoresis was performed at 75 volts for 2 h and the DNA patterns were visualized with UV light.
[…] After incubation, cells were washed twice in PBS. Cell pellets were resuspended in drug-free medium and incubated for 48 hr at 37° C. Cell viability, morphology, mitotic spindles, cell cycle distribution and apoptosis were determined 24 hr and 48 hr post pulse exposure.
Soluble DNA from cells was extracted by the method reported previously (14). Briefly, after washing with PBS, cells were treated in 1 ml lysis buffer (0.01 M Tris.HCL pH 8.0, 0.01 M NaCl, 0.01M EDTA pH 8.0 and 5% sodium dodecyl sulfate) containing 1 μg/ml proteinase K for 1 hr at 50° C. The resulting products were extracted with phenol and chloroform:isoamylalcohol (24:1, v/v), and precipitated with ethanol followed by centrifugation at 7800 g (Sorvall RC-5B Du Pont, Newtown, Conn.). The ethanol was removed and the dry pellet of nucleic acid was resuspended in 10 mM Tris-HCL/1 mM EDTA solution. DNA content was determined spectrophotometrically by measuring absorption at 260 nm (A260). All samples, had A260/A280≧2. The DNA samples were then treated with RNase (Sigma, St. Louis, Mo.) at a final concentration of 0.1 μg/l for 20 min at 37° C. before gel loading. The DNA sample (4 μg) was analyzed in 1.5% horizontal agarose gel prepared with 1% ethidium bromide. Electrophoresis was performed at 75 volts for 2 hours and the DNA migration was visualized under UV light.

[2] = system: P338 leukemia lymphoma cells; test: Survival and ED50 in mice implanted i.p. with P338 lymphoma; assay type: in vivo, male C57 BL/6JX mice; settings: for ED50: P338 leukemia lymphoma i.p. in mice, drug i.p. on days 2 and 8
Procedure: FIG. 9 is a plot graph of the survival rate of male C57 BL/6JX mice implanted (i.p.) with P338 lymphoma, from 10 to 40 days after implantation. Two groups were used for the study: a control group of ten and a test group of ten that were treated with 20 mg/kg, (i.p.) of compound 8 at 2 and 8 days post-implantation.
(§1) The in vivo efficacy of 3-BAABU and 3-IAABU of the present invention was asssessed in a murine model, along with known anti-tubule agents, vinblastine and paclitaxel, as a comparative standard. Approximately 10^6 P338 leukemia lymphoma cells/mouse were implanted intra-peritoneal (i.p.) into male C57 BL/6JX mice (Jackson Laboratories, N.Y.). On days 2 and 8 post-implantation, drugs were administrated i.p. at the following concentration ranges: 3-BAABU from 16.6 to 116 μmole/kg, 3-IAABU from 14.4 to 101 μmole/kg, vinblastine from 2.2 to 20 μmole/kg and paclitaxel from 28 to 57 μmole/kg.
(§2) Both control and treated animals were examined for ascitic tumor burden daily for 35 days. […] Therapeutic index was defined as the ratio of LD50 (lethal dose) to ED50 (effective dose).

[3] = LD50 (lethal dose) in mice; settings: mouse, in vivo, ip
Source text: as §1, §2

[4] = system: L1210 Leukemia; test: Survival of mice implanted i.p. with L1210 Leukemia; assay type: in vivo
[5] = system: repolymerized microtubules; test: Inhibition of microtubule disassembly by spectrophotometry, cell free system; assay type: biochemical, calf; settings: 20 μg/ml (66 μM)
Procedure: Purified tubulin was purchased from Sigma (St. Louis, Mo.). The effects of compounds 6, 7, 8, 9, paclitaxel and vinblastine on the microtubule assembly-disassembly process were determined using conditions recommended by the vendor. For assembly inhibition, 100 μl tubulin solution (500-600 μg protein/ml) was mixed gently with 400 μl reaction buffer containing 0.1 M MES (2-[N-morpholino]ethane sulfonic acid), 1 mM EGTA ([…]-N,N,N′,N′-tetraacetic acid), 0.5 mM MgCl2, 0.1 mM EDTA and 2.5 M gycerol at 37° C. Compounds 6, 7, 8, and 9 were next added to each sample at final concentrations of 10, 10, 1 and 1 μg/ml, respectively. After adding GTP to each sample to a final concentration of 1 mM, the microtubule assembly process was monitored by measuring the change of absorbance (OD) at 350 nm on a spectrophotometer (Ultrospec III, Pharmacia LKB, Uppsala, Sweden). […] Changes of absorbance (OD) were monitored at 350 nm for 30 min until the OD values in the controls returned to the starting level, i.e., when the assembly-disassembly cycle was completed.
Purified tubulin from calf brain was purchased from Sigma (St. Louis, Mo.). The effects of 3-BAABU (3-bromoacetoamido, benzoylurea) on the microtubule assembly-disassembly process were determined using the conditions recommended by the vendor. […]

Row | SMILES | apoptosis, DNA fragmentation on gel electrophoresis [1] | Survival IL % ([2]; P338 Lymphoma (i.p.), 20 mg/kg ip on days 2 & 8) | Survival Mean ± SD ([2]; P338 Lymphoma (i.p.), 20 mg/kg ip on days 2 & 8, control 18.6 ± 1.1) | ED50 [2] | LD50 [3] | Survival IL % ([4]; 20 mg/kg ip on days 2 & 8) | Survival Mean ± SD ([4]; 20 mg/kg ip on days 2 & 8, control 16.5 ± 1.4) | effect on microtubular depolymerization [5] | Apoptosis ([1]; Continuous Exposure (24 hr; 48 hr in footnote)) | Apoptosis ([1]; Pulse Exposure (1 hr))
1 | NC(=O)NC(=O)c1cccc(NC(=O)CCl)c1 [Compound 7, 3-Chloroacetoamido, benzoylurea] | much less DNA fragmentation | – | – | – | – | – | – | – | – | –
2 | NC(=O)NC(=O)c1cccc(NC(=O)CBr)c1 [Compound 8, 3-Bromoacetoamido, benzoylurea] | 180-200 bp multiple-unit ladder pattern | 54% | 28.6 ± 5.2 | 27 µmol/kg | about 90 μmole/kg | 44% | 23.7 ± 4.4 | not influenced | ++++ (++++: >75% cells were affected) | ++++ (++++: >75% cells were affected)
3 | NC(=O)NC(=O)c1cccc(NC(=O)CI)c1 [Compound 9, 3-Iodoacetoamido, benzoylurea] | 180-200 bp multiple-unit ladder pattern | – | – | 26 µmol/kg | about 90 μmole/kg | – | – | – | – | –

From US6590123B2, “Aminobenzoic acid derivatives having anti-tumorigenic activity, methods of making and using the same” (Mount Sinai School of Medicine of New York University, priority 1998, dated 2003)
